Laboratory results published in publication PMC7646944 (2020).

Key:
[1] = tested on: SCA2.1–40 (DNA, aptamer) CTTACGACCTTAAGTGGGGTTCGGGTGGAGTTTATGGGGT; assay: isothermal titration calorimetry
[2] = tested on: SCA2.1–34 (DNA, aptamer) ACCTTAAGTGGGGTTCGGGTGGAGTTTATGGGGT; assay: isothermal titration calorimetry

| SMILES | KD [1] [µM] | KD [2] [µM] |
| --- | --- | --- |
| CCCC(C(=O)c1ccc2c(c1)OCO2)N1CCCC1 (stereo not drawn) | 292 ± 14 | 96 ± 4.0 |
| CCC[C@H](C(=O)c1ccc2c(c1)OCO2)N1CCCC1 | 0.65 ± 0.03 |  |
